Tested on: HeLa B cells
Test: Cell cycle inhibition in HeLa cells (FACS, G0/G1 to G2/M ratio)
Format: cell-based
Conditions: read-out: IC50 (concentration at which 50% of the cells are inhibited in their cell cycle), 20 h incubation with compound
Method: HeLa B cells were cultivated in DMEM (Life Technologies Cat. No. 21969-035) containing fetal calf serum (FCS, Life Technologies Cat. No. 10270-106) in 180 cm^2 containers at 37° C., 92% humidity and 7% CO2.
5×10^4 cells per well were added into a 24-well plate. After 20 h, the compounds to be tested were added such that the final concentration was 1×10^−6, 3.3×10^−7, 1.1×10^−7, 3.7×10^−8, 1.2×10^−8 and 1×10^−9 M in a final volume of 500 μl. 6 wells contained only DMSO as control. The treated cells were incubated as described above for a further 20 h. The cells were then examined under the microscope for dead cells. The 24-well plate was then centrifuged at 1200 rpm at 20° C., an acceleration in position 7 and the brake position 5 (Eppendorf centrifuge 5804R) for 5 min.
The supernatant was removed and the cells were lysed with 0.5 ml of RNase buffer (10 mM sodium citrate, 0.1% Nonidet NP40, 50 μg/ml RNase, 10 μg/ml propidium iodide) per well. The plates were then incubated at room temperature in the dark for at least 30 min, and the samples were then transferred into FACS tubes. These were measured in an FACS instrument (Beckton Dickinson) with the following settings:
Instrument settings at the FACS Calibur:
The ratio of cells in the G0/G1 phase to those in the G2/M phase was calculated and compared to the value for the control (DMSO).

SMILES	IC50
COCCCOc1cc(F)c(-c2c(Cl)nc(-n3cccn3)nc2NC(C)C(C)(C)C)c(F)c1 (stereo not drawn) [Example 15]	32 nM
COCCCOc1cc(F)c(-c2c(Cl)nc(C#N)nc2N2CCC(C)CC2)c(F)c1 [Example 31]	120 nM
COCCCOc1cc(F)c(-c2c(Cl)nc(-n3cccn3)nc2NC(C)C(C)C)c(F)c1 (stereo not drawn) [Example 16]	26 nM
CC1CCN(c2nc(-n3cncn3)nc(Cl)c2-c2c(F)cc(OCCCN(C)C(=O)OC(C)(C)C)cc2F)CC1 [Example 22]	290 nM
CON=C(N)c1nc(Cl)c(-c2c(F)cc(OCCCN(C)C)cc2F)c(N2CCC(C)CC2)n1 [Example 2]	27 nM
COCCCOc1cc(F)c(-c2c(Cl)nc(-n3nccn3)nc2NC(C)C(C)C)c(F)c1 (stereo not drawn) [Example 19]	26 nM
CC1CCN(c2nc(C#N)nc(Cl)c2-c2c(F)cc(OCCCOc3cc(Cl)ncn3)cc2F)CC1 [Example 32]	570 nM
CC1CCN(c2nc(C#N)nc(Cl)c2-c2c(F)cc(OCCCN(C)C)cc2F)CC1 [Example 27]	220 nM
CNCCCOc1cc(F)c(-c2c(Cl)nc(C(=O)c3ccc(C)cc3)nc2N2CCCCCC2)c(F)c1 [Example 39]	580 nM
CC1CCN(c2nc(-n3cncn3)nc(Cl)c2-c2c(F)cc(OCCCOc3cc(Cl)ncn3)cc2F)CC1 [Example 23]	330 nM
CC1CCN(c2nc(-n3cccn3)nc(Cl)c2-c2c(F)cc(OCCCOc3cc(Cl)ncn3)cc2F)CC1 [Example 12]	470 nM
COCCCOc1cc(F)c(-c2c(Cl)nc(-n3ccnn3)nc2NC(C)C(C)(C)C)c(F)c1 (stereo not drawn) [Example 18]	29 nM
COCCCOc1cc(F)c(-c2c(Cl)nc(C(N)=NOC)nc2NC(C)C(C)(C)C)c(F)c1 (stereo not drawn) [Example 7]	56 nM
COCCCOc1cc(F)c(-c2c(Cl)nc(-n3cncn3)nc2NC(C)C(C)(C)C)c(F)c1 (stereo not drawn) [Example 24]	42 nM
CC(Nc1nc(C#N)nc(Cl)c1-c1c(F)cc(OCCCCl)cc1F)C(C)(C)C (stereo not drawn) [Example 37]	280 nM
COCCCOc1cc(F)c(-c2c(Cl)nc(-n3cncn3)nc2NC(C)C(C)C)c(F)c1 (stereo not drawn) [Example 25]	42 nM
CC(C)C(C)Nc1nc(C#N)nc(Cl)c1-c1c(F)cc(OCCCCl)cc1F (stereo not drawn) [Example 38]	330 nM
COCCCOc1cc(F)c(-c2c(Cl)nc(-n3nccn3)nc2NC(C)C(C)(C)C)c(F)c1 (stereo not drawn) [Example 20]	27 nM
COCCCOc1cc(F)c(-c2c(Cl)nc(-n3ccnn3)nc2NC(C)C(C)C)c(F)c1 (stereo not drawn) [Example 17]	32 nM
CNCCCOc1cc(F)c(-c2c(Cl)nc(C#N)nc2N2CCCCCC2)c(F)c1 [Example 33]	480 nM
COCCCOc1cc(F)c(-c2c(Cl)nc(C#N)nc2NC(C)C(C)(C)C)c(F)c1 (stereo not drawn) [Example 35]	190 nM
CNCCCOc1cc(F)c(-c2c(Cl)nc(-n3cncn3)nc2N2CCC(C)CC2)c(F)c1 [Example 21]	18 nM
CC1CCN(c2nc(-n3cccn3)nc(Cl)c2-c2c(F)cc(OCCCN(C)C(=O)OC(C)(C)C)cc2F)CC1 [Example 11]	570 nM
COCCCOc1cc(F)c(-c2c(Cl)nc(C#N)nc2NC(C)C(C)C)c(F)c1 (stereo not drawn) [Example 36]	59 nM
